Experimental data from PubChem BioAssay AID330 (DTP/NCI, 2004).
Several values for one entry are separate records, joined by “and”; a condition that tells them apart may be missing. Identical values can stand only once. Inconclusive results and toxic doses are left out. How the source made its calls: active means survival T/C of 150% or more; inactive means T/C below 125% in these data.

Tested on: P388 leukemia ip, CD2F1 mice, survival T/C
Experiment: NCI In Vivo Anticancer Drug Screen. Data for tumor model P388 Leukemia (intraperitoneal) in CD2F1 (CDF1) mice
Details: endpoint: median survival time, higher = longer survival
Procedure, shortened: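 Mice carrying the transplanted tumor received test compound or vehicle. Survival was recorded in each group, and the value is the treated-group measurement divided by that of the vehicle-treated control group.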

[1] = dose: 50.0 mg/kg/injection, schedule: Q01DX009 (ip), vehicle: Klucel (hydroxypropylcellulose) (HPC)
[2] = dose: 100.0 mg/kg/injection, schedule: Q01DX009 (ip), vehicle: saline with Tween-80
[3] = dose: 200.0 mg/kg/injection, schedule: Q01DX009 (ip), vehicle: saline with Tween-80
[4] = dose: 400.0 mg/kg/injection, schedule: Q01DX009 (ip), vehicle: saline with Tween-80
[5] = dose: 12.5 mg/kg/injection, schedule: Q01DX009 (ip), vehicle: distilled water + Tween-80
[6] = dose: 100.0 mg/kg/injection, schedule: Q04DX003 (ip), vehicle: saline
[7] = dose: 200.0 mg/kg/injection, schedule: Q04DX003 (ip), vehicle: saline
[8] = dose: 400.0 mg/kg/injection, schedule: Q04DX003 (ip), vehicle: saline

Measured: T/C

Nc1ncnc2c1ccn2C1OC2COP(=O)(O)OC2C1O (centres undefined)
inactive: dose: 0.13 mg/kg/injection, schedule: Q03HX024 (ip), vehicle: saline 90 % of control | dose: 0.25 mg/kg/injection, schedule: Q03HX024 (ip), vehicle: saline 104 % of control | dose: 0.5 mg/kg/injection, schedule: Q03HX024 (ip), vehicle: saline 100 % of control | dose: 1.0 mg/kg/injection, schedule: Q01DX009 (ip), vehicle: saline 100 % of control | dose: 1.0 mg/kg/injection, schedule: Q03HX024 (ip), vehicle: saline 122 % of control | dose: 1.0 mg/kg/injection, schedule: Q04DX003 (ip), vehicle: saline 104 % of control | dose: 2.0 mg/kg/injection, schedule: Q01DX001 (ip), vehicle: saline 100 % of control | dose: 2.0 mg/kg/injection, schedule: Q01DX009 (ip), vehicle: saline 104 % of control | dose: 2.0 mg/kg/injection, schedule: Q04DX003 (ip), vehicle: saline 100 % of control | dose: 4.0 mg/kg/injection, schedule: Q01DX001 (ip), vehicle: saline 100 % of control | dose: 4.0 mg/kg/injection, schedule: Q04DX003 (ip), vehicle: saline 104 % of control | dose: 8.0 mg/kg/injection, schedule: Q01DX001 (ip), vehicle: saline 109 % of control | dose: 8.0 mg/kg/injection, schedule: Q01DX009 (ip), vehicle: saline 95 % of control | dose: 8.0 mg/kg/injection, schedule: Q04DX003 (ip), vehicle: saline 113 % of control | dose: 16.0 mg/kg/injection, schedule: Q01DX001 (ip), vehicle: saline 118 % of control

C(=C\c1ccc(-c2nc3ccccc3o2)cc1)/c1ccc(-c2nc3ccccc3o2)cc1
inactive: [1] 100 % of control | dose: 100.0 mg/kg/injection, schedule: Q01DX009 (ip), vehicle: Klucel (hydroxypropylcellulose) (HPC) 101 % of control | dose: 200.0 mg/kg/injection, schedule: Q01DX009 (ip), vehicle: Klucel (hydroxypropylcellulose) (HPC) 102 % of control

O=C(Nc1cccc(O)c1)C(Cl)=C(Cl)Cl
inactive: dose: 3.12 mg/kg/injection, schedule: Q01DX005 (ip), vehicle: DMSO 109 % of control | dose: 6.25 mg/kg/injection, schedule: Q01DX005 (ip), vehicle: DMSO 104 % of control | dose: 6.25 mg/kg/injection, schedule: Q01DX005 (ip), vehicle: saline with Tween-80 101 % of control | dose: 12.5 mg/kg/injection, schedule: Q01DX005 (ip), vehicle: DMSO 109 % of control | dose: 12.5 mg/kg/injection, schedule: Q01DX005 (ip), vehicle: saline with Tween-80 115 % of control | dose: 25.0 mg/kg/injection, schedule: Q01DX005 (ip), vehicle: DMSO 108 % of control | dose: 25.0 mg/kg/injection, schedule: Q01DX005 (ip), vehicle: saline with Tween-80 110 % of control | dose: 50.0 mg/kg/injection, schedule: Q01DX005 (ip), vehicle: DMSO 104 % of control

Cc1cc2c(c3ccccc13)C(=N/N=C(N)N)/C(=N/N=C(N)N)C2
inactive: dose: 6.25 mg/kg/injection, schedule: Q01DX009 (ip), vehicle: saline with Tween-80 101 % of control | dose: 12.5 mg/kg/injection, schedule: Q01DX009 (ip), vehicle: saline with Tween-80 108 % of control | dose: 25.0 mg/kg/injection, schedule: Q01DX001 (ip), vehicle: saline with Tween-80 105 % of control | dose: 25.0 mg/kg/injection, schedule: Q01DX009 (ip), vehicle: saline with Tween-80 101 % of control | dose: 50.0 mg/kg/injection, schedule: Q01DX001 (ip), vehicle: saline with Tween-80 97 % of control

CCOC(=O)NC12c3ccccc3C(c3ccccc31)C(C(=O)O)C2C(=O)O (centres undefined)
inactive: [2] 118 % of control | [3] 118 % of control | [4] 118 % of control

O=C(O)C1Cc2c([nH]c3ccccc23)C(CO)N1 (centres undefined)
inactive: dose: 25.0 mg/kg/injection, schedule: Q01DX009 (ip), vehicle: suspension in saline 107 % of control | dose: 50.0 mg/kg/injection, schedule: Q01DX009 (ip), vehicle: suspension in saline 104 % of control

CCOS(=O)c1ccc(C)cc1 (centres undefined)
inactive: dose: 12.5 mg/kg/injection, schedule: Q01DX009 (ip), vehicle: Klucel (hydroxypropylcellulose) (HPC) 98 % of control | dose: 25.0 mg/kg/injection, schedule: Q01DX009 (ip), vehicle: Klucel (hydroxypropylcellulose) (HPC) 98 % of control | [1] 105 % of control and 110 % of control

Cc1cc(NCc2ccccc2)c(C)c2c1C=NCC2
inactive: [5] 97 % of control | dose: 25.0 mg/kg/injection, schedule: Q01DX009 (ip), vehicle: distilled water + Tween-80 97 % of control | dose: 50.0 mg/kg/injection, schedule: Q01DX009 (ip), vehicle: distilled water + Tween-80 106 % of control | dose: 100.0 mg/kg/injection, schedule: Q01DX009 (ip), vehicle: distilled water + Tween-80 92 % of control | dose: 200.0 mg/kg/injection, schedule: Q01DX009 (ip), vehicle: distilled water + Tween-80 87 % of control

O=C1NC(CN2CCCCC2)C(=O)NC1CN1CCCCC1 (centres undefined)
inactive: dose: 60.0 mg/kg/injection, schedule: Q01DX005 (ip), vehicle: Klucel (hydroxypropylcellulose) (HPC) 89 % of control | dose: 120.0 mg/kg/injection, schedule: Q01DX005 (ip), vehicle: Klucel (hydroxypropylcellulose) (HPC) 92 % of control

COC(=O)C(C(=O)OC)C(CC(=O)c1ccccc1)c1ccccc1 (centres undefined)
inactive: dose: 50.0 mg/kg/injection, schedule: Q01DX009 (ip), vehicle: saline with Tween-80 109 % of control | [2] 103 % of control | [3] 103 % of control

CC1(C)C/C(=C\c2cc(O)ccc2[N+](=O)[O-])C(=O)c2ccccc21
inactive: [2] 86 % of control | [3] 95 % of control | [4] 90 % of control

CCn1cnc(-c2ccccc2)c1-c1ccccc1
inactive: dose: 25.0 mg/kg/injection, schedule: Q04DX003 (ip), vehicle: saline with Tween-80 109 % of control | dose: 50.0 mg/kg/injection, schedule: Q04DX003 (ip), vehicle: saline with Tween-80 100 % of control

O=[N+]([O-])c1ccc(NN=NCCCl)cc1
inactive: [5] 109 % of control

CCCCCCCCCCSCC
inactive: dose: 100.0 mg/kg/injection, schedule: Q01DX009 (ip), vehicle: saline 95 % of control | [6] 100 % of control | dose: 200.0 mg/kg/injection, schedule: Q01DX009 (ip), vehicle: saline 100 % of control | [7] 91 % of control | dose: 400.0 mg/kg/injection, schedule: Q01DX009 (ip), vehicle: saline 104 % of control | [8] 100 % of control

CCOC1=C(C)N2/C(=C/C(=O)OC)[C@@H]3C[C@@H](C)C[C@]2(O3)S1
inactive: dose: 60.0 mg/kg/injection, schedule: Q01DX005 (ip), vehicle: saline with Tween-80 101 % of control | dose: 120.0 mg/kg/injection, schedule: Q01DX005 (ip), vehicle: saline with Tween-80 94 % of control | dose: 240.0 mg/kg/injection, schedule: Q01DX005 (ip), vehicle: saline with Tween-80 104 % of control

O=c1[nH]c(=O)n(C2OC(CF)C(O)C2O)cc1Br (centres undefined)
inactive: dose: 50.0 mg/kg/injection, schedule: Q01DX005 (ip), vehicle: Klucel (hydroxypropylcellulose) (HPC) 96 % of control | dose: 100.0 mg/kg/injection, schedule: Q01DX005 (ip), vehicle: Klucel (hydroxypropylcellulose) (HPC) 96 % of control | dose: 200.0 mg/kg/injection, schedule: Q01DX005 (ip), vehicle: Klucel (hydroxypropylcellulose) (HPC) 98 % of control

Nc1ncnc2c1nc(F)n2C1OC(CO)C(O)C1O (centres undefined)
inactive: dose: 6.25 mg/kg/injection, schedule: Q01DX005 (ip), vehicle: saline 107 % of control | dose: 12.5 mg/kg/injection, schedule: Q01DX005 (ip), vehicle: saline 108 % of control | dose: 25.0 mg/kg/injection, schedule: Q01DX005 (ip), vehicle: saline 108 % of control

O=C(O)CNCc1ccc(F)cc1
inactive: [6] 98 % of control | [7] 103 % of control | [8] 102 % of control | dose: 600.0 mg/kg/injection, schedule: Q04DX003 (ip), vehicle: saline 100 % of control
